From patent publication US8119630B2 (Arrow Therapeutics Limited, priority 2002, dated 2012)
pIC50: −log10 of the molar value.

Legend:
RSV = assay: XTT assay, RSV-infected Hep-2 cells; format: cell-based, Respiratory Syncytial Virus (RSV); details: Table 2, Examples 75 to 82 and 125 to 184, Hep-2 cells infected with RSV, 6 days at 37° C.
Description: Examples 75 to 82 and 125 to 184 were tested according to the protocol described below.
(§1) The inner 60 wells of 96 well tissue culture plates were seeded with Hep-2 cells at 4×10^4 cells/well for compound activity and toxicity studies in 100 μl of medium and incubated at 37° C. overnight or until nearing confluency.
(§2) Cells were infected with 25 μl RSV previously titrated to give 80% cell kill. To each well 25 μM of test compound were added. The final DMSO concentration was 0.5%. Some 200 μl of sterile distilled water were added to the outer wells of the plate and incubated at 37° C. for 6 days. Some 0.25 μl/ml PMS were added to stock […] solution, final conc. 25 μM PMS. Then 25 μl warmed XTT/PMS solution were added to each well and incubated for 1 hour at 37° C.
Maximum OD450nm reading (uninfected, untreated control cells) corresponded to 100% inhibition. Minimum OD450nm readings (infected control cells) corresponded to 0% inhibition. Log 10 concentration was plotted against OD450nm and IC50 values were calculated from either reading 50% value from graph or using regression analysis.

Hep-2 cells = assay: Toxicity studies (XTT), Hep-2 cells; format: cell-based; set-up: TC50 (6d): unit not given beside the values; details: for TC50 (6d): Table 2, Examples 75 to 82 and 125 to 184, 6d, in µM; for TC50 (2d): Table 2, Examples 75 to 82 and 125 to 184, 2d
Description: as §1
as §2, with “Some 200 μl of sterile distilled water were added to the outer wells of the plate and incubated at 37° C. for 6 days.” left out

[1] = human respiratory syncytial virus, 144 h

Structure (SMILES): O=C(N[C@H]1N=C(c2ccccc2)c2ccccc2NC1=O)c1ccccc1O [Example 80b, (S)-2-Hydroxy-N-(2-oxo-5-phenyl-2,3-dihydro-1H-benzo[e][1,4]diazepin-3-yl)-benzamide]
- pIC50 (RSV; [1]): 5.70
- TC50 (6d) (Hep-2 cells): >50

Structure (SMILES): O=C(NC1N=C(c2ccccc2)c2ccccc2NC1=O)c1cccc2cc[nH]c12 (stereo not drawn) [Example 81a, 1H-Indole-7-carboxylic acid (2-oxo-5-phenyl-2,3-dihydro-1H-benzo[e][1,4]diazepin-3-yl)-amide]
- pIC50 (RSV; [1]): 5.08
- TC50 (6d) (Hep-2 cells): 63

Structure (SMILES): O=C(N[C@H]1N=C(c2ccccc2)c2ccccc2NC1=O)c1cccc2cc[nH]c12 [Example 81b]
- pIC50 (RSV): 5.92
- TC50 (6d) (Hep-2 cells): 35.6

Structure (SMILES): COc1cc2ccccc2cc1C(=O)NC1N=C(c2ccccc2)c2ccccc2NC1=O (stereo not drawn) [Example 82a, 3-Methoxy-naphthalene-2-carboxylic acid (2-oxo-5-phenyl-2,3-dihydro-1H-benzo[e][1,4]diazepin-3-yl)-amide]
- pIC50 (RSV; [1]): 5.17
- TC50 (6d) (Hep-2 cells): >50

Structure (SMILES): COc1cc2ccccc2cc1C(=O)N[C@H]1N=C(c2ccccc2)c2ccccc2NC1=O [Example 82b, (S)-3-Methoxy-naphthalene-2-carboxylic acid (2-oxo-5-phenyl-2,3-dihydro-1H-benzo[e][1,4]diazepin-3-yl)-amide]
- pIC50 (RSV; [1]): 5.82
- TC50 (6d) (Hep-2 cells): >50

Structure (SMILES): COc1ccc(C(C)(C)C)cc1C(=O)NC1N=C(c2ccccc2)c2ccccc2NC1=O (stereo not drawn) [Example 125, 5-tert-Butyl-2-methoxy-N-(2-oxo-5-phenyl-2,3-dihydro-1H-benzo[e][1,4]diazepin-3-yl)-benzamide]
- pIC50 (RSV; [1]): 5.21
- TC50 (6d) (Hep-2 cells): >50

Structure (SMILES): COc1ccc(OC)c(C(=O)NC2N=C(c3ccccc3)c3ccccc3NC2=O)c1 (stereo not drawn) [Example 126, 2,5-Dimethoxy-N-(2-oxo-5-phenyl-2,3-dihydro-1H-benzo[e][1,4]diazepin-3-yl)-benzamide]
- pIC50 (RSV; [1]): 5.27
- TC50 (6d) (Hep-2 cells): >50

Structure (SMILES): O=C(Nc1c(F)cccc1F)NC1N=C(c2ccccc2)c2ccccc2NC1=O (stereo not drawn) [Example 127, 1-(2,6-Difluoro-phenyl)-3-(2-oxo-5-phenyl-2,3-dihydro-1H-benzo[e][1,4]diazepin-3-yl)-urea]
- pIC50 (RSV; [1]): 5.03
- TC50 (6d) (Hep-2 cells): >50

Structure (SMILES): O=C(Nc1cccc(F)c1)NC1N=C(c2ccccc2)c2ccccc2NC1=O (stereo not drawn) [Example 128, 1-(3-Fluoro-phenyl)-3-(2-oxo-5-phenyl-2,3-dihydro-1H-benzo[e][1,4]diazepin-3-yl)-urea]
- pIC50 (RSV; [1]): 5.21
- TC50 (6d) (Hep-2 cells): >50

Structure (SMILES): COc1cccc(NC(=O)NC2N=C(c3ccccc3)c3ccccc3NC2=O)c1 (stereo not drawn) [Example 129, 1-(3-Methoxy-phenyl)-3-(2-oxo-5-phenyl-2,3-dihydro-1H-benzo[e][1,4]diazepin-3-yl)-urea]
- pIC50 (RSV; [1]): 5.31
- TC50 (6d) (Hep-2 cells): >50

Structure (SMILES): O=C(Nc1cccc(C(F)(F)F)c1)NC1N=C(c2ccccc2)c2ccccc2NC1=O (stereo not drawn) [Example 130, 1-(2-Oxo-5-phenyl-2,3-dihydro-1H-benzo[e][1,4]diazepin-3-yl)-3-(3-trifluoromethyl-phenyl)-urea]
- pIC50 (RSV; [1]): 5.01
- TC50 (6d) (Hep-2 cells): 39.5

Structure (SMILES): O=C(Nc1cccc(Cl)c1)NC1N=C(c2ccccc2)c2ccccc2NC1=O (stereo not drawn) [Example 131]
- pIC50 (RSV): 5.02
- TC50 (6d) (Hep-2 cells): >50

Structure (SMILES): COc1cc(SC)ccc1C(=O)NC1N=C(c2ccccc2)c2ccccc2NC1=O (stereo not drawn) [Example 132, 2-Methoxy-4-methylsulfanyl-N-(2-oxo-5-phenyl-2,3-dihydro-1H-1-benzo[e][1,4]diazepin-3-yl)-benzamide]
- pIC50 (RSV): 5.20
- TC50 (6d) (Hep-2 cells): >50

Structure (SMILES): CS(=O)(=O)c1ccc(C(=O)NC2N=C(c3ccccc3)c3ccccc3NC2=O)cc1 (stereo not drawn) [Example 133, 4-Methanesulfonyl-N-(2-oxo-5-phenyl-2,3-dihydro-1H-benzo[e][1,4]diazepin-3-yl)-benzamide]
- pIC50 (RSV; [1]): 5.21
- TC50 (6d) (Hep-2 cells): 77.2

Structure (SMILES): COC(=O)c1ccc(C(=O)NC2N=C(c3ccccc3)c3ccccc3NC2=O)cc1 (stereo not drawn) [Example 134, N-(2-Oxo-5-phenyl-2,3-dihydro-1H-benzo[e][1,4]diazepin-3-yl)terephthalamic acid methyl ester]
- pIC50 (RSV; [1]): 5.19
- TC50 (6d) (Hep-2 cells): 77.1

Structure (SMILES): O=C(NC1N=C(c2ccccc2)c2ccccc2NC1=O)c1ccccc1F (stereo not drawn) [Example 135, 2-Fluoro-N-(2-oxo-5-phenyl-2,3-dihydro-1H-benzo[e][1,4]diazepin-3-yl)-benzamide]
- pIC50 (RSV; [1]): 5.02
- TC50 (6d) (Hep-2 cells): >50

Structure (SMILES): O=C(NC1N=C(c2ccccc2)c2ccccc2NC1=O)c1c(F)cccc1F (stereo not drawn) [Example 136, 2,6-Difluoro-N (2-oxo-5-phenyl-2,3-dihydro-1H-benzo[e][1,4]diazepin-3-yl)-benzamide]
- pIC50 (RSV): 5.06
- TC50 (6d) (Hep-2 cells): >50

Structure (SMILES): CCCOc1ccccc1C(=O)NC1N=C(c2ccccc2)c2ccccc2NC1=O (stereo not drawn) [Example 137, N-(2-Oxo-5-phenyl-2,3-dihydro-1H-benzo[e][1,4]diazepin-3-yl)-2-propoxy-benzamide]
- pIC50 (RSV; [1]): 5.08
- TC50 (6d) (Hep-2 cells): >50

Structure (SMILES): O=C(NC1N=C(c2ccccc2)c2ccccc2NC1=O)c1ccccc1I (stereo not drawn) [Example 138, 2-Iodo-N-(2-oxo-5-phenyl-2,3-dihydro-1H-benzo[e][1,4]diazepin-3-yl)-benzamide]
- pIC50 (RSV; [1]): 5.08
- TC50 (6d) (Hep-2 cells): 51

Structure (SMILES): COC(=O)c1ccc(C(=O)NC2N=C(c3ccccc3)c3ccccc3NC2=O)c(OC)c1 (stereo not drawn) [Example 139, 3-Methoxy-N-(2-oxo-5-phenyl-2,3-dihydro-H-benzo[e][1,4]diazepin-3-yl)-terephthalamic acid methyl ester]
- pIC50 (RSV): 5.04
- TC50 (6d) (Hep-2 cells): 98

Structure (SMILES): COc1cc(N)c(Cl)cc1C(=O)NC1N=C(c2ccccc2)c2ccccc2NC1=O (stereo not drawn) [Example 140, 4-Amino-5-chloro-2-methoxy-N-(2-oxo-5-phenyl-2,3-dihydro-1H-benzo[e][1,4]diazepin-3-yl)-benzamide]
- pIC50 (RSV; [1]): 5.60
- TC50 (6d) (Hep-2 cells): 68

Structure (SMILES): CSc1ccccc1C(=O)NC1N=C(c2ccccc2)c2ccccc2NC1=O (stereo not drawn) [Example 142, 2-Methylsulfanyl-N-(2-oxo-5-phenyl-2,3-dihydro-1H-benzo[e][1,4]diazepin-3-yl)-benzamide]
- pIC50 (RSV; [1]): 5.03
- TC50 (6d) (Hep-2 cells): >50

Structure (SMILES): COc1ccc(S(N)(=O)=O)cc1C(=O)NC1N=C(c2ccccc2)c2ccccc2NC1=O (stereo not drawn) [Example 143, 2-Methoxy-N-(2-oxo-5-phenyl-2,3-dihydro-1H-benzo[e][1,4]diazepin-3-yl)-5-sylfamoyl-benzamide]
- pIC50 (RSV): 5.42
- TC50 (2d) (Hep-2 cells): > 50 µM

Structure (SMILES): O=C(NC1N=C(c2ccccc2)c2ccccc2NC1=O)C(O)Cc1ccccc1 (stereo not drawn) [Example 144, 2-Hydroxy-N-(2-oxo-5-phenyl-2,3-dihydro-1H-benzo[e][1,4]diazepin-3-yl)-3-phenyl-propionamide]
- pIC50 (RSV; [1]): 5.26
- TC50 (2d) (Hep-2 cells): > 50 µM

Structure (SMILES): O=C(CC(O)c1ccccc1)NC1N=C(c2ccccc2)c2ccccc2NC1=O (stereo not drawn) [Example 145, 3-Hydroxy-N-(2-oxo-5-phenyl-2,3-dihydro-1H-benzo[e][1,4]diazepin-3-yl)-3-phenyl-propionamide]
- pIC50 (RSV; [1]): 5.72
- TC50 (2d) (Hep-2 cells): > 50 µM

Structure (SMILES): CN(C(=O)Nc1ccccc1F)C1N=C(c2ccccc2)c2ccccc2NC1=O (stereo not drawn) [Example 146, 3-(2-Fluoro-phenyl)-1-methyl-1-(2-oxo-5-phenyl-2,3-dihydro-1H-benzo[e][1,4]diazepin-3-yl)-urea]
- pIC50 (RSV; [1]): 5.02
- TC50 (2d) (Hep-2 cells): > 50 µM

Structure (SMILES): COc1cc([N+](=O)[O-])ccc1C(=O)N(C)C1N=C(c2ccccc2)c2ccccc2NC1=O (stereo not drawn) [Example 147, 2-Methoxy-N-methyl-4-nitro-N-(2-oxo-5-phenyl-2,3-dihydro-1H-benzo[e][1,4]diazepin-3-yl)-benzamide]
- pIC50 (RSV; [1]): 4.80
- TC50 (2d) (Hep-2 cells): > 50 µM

Structure (SMILES): CC(C)(C)NC(=O)NC1N=C(c2ccccc2)c2ccccc2NC1=O (stereo not drawn) [Example 148, 1-tert-Butyl-3-(2-oxo-5-phenyl-2,3-dihydro-1H-benzo[e][1,4]diazepin-3-yl)-urea]
- pIC50 (RSV; [1]): 5.30
- TC50 (2d) (Hep-2 cells): > 100 µM
- TC50 (6d) (Hep-2 cells): >100

Structure (SMILES): O=C(NC1CCCCC1)NC1N=C(c2ccccc2)c2ccccc2NC1=O (stereo not drawn) [Example 149, 1-Cyclohexyl-3-(2-oxo-5-phenyl-2,3-dihydro-1H-benzo[e][1,4]diazepin-3-yl)-urea]
- pIC50 (RSV; [1]): 5.82
- TC50 (2d) (Hep-2 cells): > 100 µM
- TC50 (6d) (Hep-2 cells): >100

Structure (SMILES): CCNC(=O)NC1N=C(c2ccccc2)c2ccccc2NC1=O (stereo not drawn) [Example 150, 1-Ethyl-3-(2-oxo-5-phenyl-2,3-dihydro-1H-benzo[e][1,4]diazepin-3-yl)-urea]
- pIC50 (RSV; [1]): 5.70
- TC50 (2d) (Hep-2 cells): > 100 µM
- TC50 (6d) (Hep-2 cells): >100

Structure (SMILES): CCCCNC(=O)NC1N=C(c2ccccc2)c2ccccc2NC1=O (stereo not drawn) [Example 151, 1-Butyl-3-(2-oxo-5-phenyl-2,3-dihydro-1H-benzo[e][1,4]diazepin-3-yl)-urea]
- pIC50 (RSV; [1]): 5.82
- TC50 (2d) (Hep-2 cells): > 100 µM
- TC50 (6d) (Hep-2 cells): >100
